logP | SMILES
3.12 | O=C(O)c1ccc2c(=O)c3cc([N+](=O)[O-])ccc3oc2c1
2.52 | N#Cc1ccc2oc3ccc(-c4nnn[nH]4)cc3c(=O)c2c1
4.59 | CCCc1ccc2oc3cc(C(=O)O)ccc3c(=O)c2c1
2.86 | O=c1c2ccccc2oc2cc(-c3nn[nH]n3)ccc12
2.87 | CC(O)COc1ccc2oc3cc(C(=O)O)ccc3c(=O)c2c1 (configuration not stated)
2.3 | Nc1ccc2oc3cc(C(=O)O)ccc3c(=O)c2c1
4.36 | CCSc1ccc2oc3cc(C(=O)O)ccc3c(=O)c2c1
3.37 | COc1ccc2oc3cc(C(=O)O)ccc3c(=O)c2c1
3.12 | COCc1ccc2oc3cc(C(=O)O)ccc3c(=O)c2c1
2.31 | O=c1c2ccc(-c3nnn[nH]3)cc2oc2ccc(OCCO)cc12
2.18 | Nc1ccc2oc3cc(-c4nnn[nH]4)ccc3c(=O)c2c1
5 | CCCCOc1ccc2oc3cc(C(=O)O)ccc3c(=O)c2c1
3.99 | CCOc1ccc2oc3cc(C(=O)O)ccc3c(=O)c2c1
3.15 | COc1ccc2oc3cc(-c4nnn[nH]4)ccc3c(=O)c2c1
3.73 | CCCC(=O)OCCOc1ccc2oc3cc(-c4nnn[nH]4)ccc3c(=O)c2c1
2.46 | O=C(O)c1ccc2c(=O)c3cc(OCCO)ccc3oc2c1
4.06 | CCSc1ccc2oc3cc(-c4nnn[nH]4)ccc3c(=O)c2c1
2.62 | O=C(O)c1ccc2c(=O)c3cc(OCCOCCO)ccc3oc2c1
3.67 | CCOc1ccc2oc3cc(-c4nn[nH]n4)ccc3c(=O)c2c1
2.83 | O=c1c2ccc(-c3nnn[nH]3)cc2oc2ccc([N+](=O)[O-])cc12
4 | CCCC(=O)OCCOc1ccc2oc3cc(C(=O)O)ccc3c(=O)c2c1
4.69 | CCCCOc1ccc2oc3cc(-c4nnn[nH]4)ccc3c(=O)c2c1

— the SangsterLogP compilation
